{"source": "PubChem BioAssay AID180", "about": "(DTP/NCI, 2004)", "tested_on": "BDF1 mice, Adenocarcinoma 755 s.c., tumor weight T/C", "assay": "NCI In Vivo Anticancer Drug Screen. Data for tumor model Adenocarcinoma 755 (subcutaneous) in B6D2F1 (BDF1) mice", "settings": "endpoint: mean tumor weight, higher = larger tumour", "outline": "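Compound activity was tested in mice carrying transplanted tumors. Survival or tumor size was measured, and each value is the treated-group measurement divided by that of the vehicle-treated control group (T/C).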", "key": {"[1]": {"settings": "dose: 30.0 mg/kg/injection, schedule: Q01DX011 (ip), vehicle: carboxymethylcellulose (CMC)"}, "[2]": {"settings": "dose: 225.0 mg/kg/injection, schedule: Q01DX011 (ip), vehicle: methylcellulose (MC)"}}, "note": "Values joined by “and” are separate entries in the source; they are usually repeats but may differ in a detail not shown here. Equal values may be shown once."}
{"smiles": "COc1ccc(-c2c(C)c(C(=O)O)nc(-c3ccc(C(=O)O)c(C(=O)O)n3)c2N)c(O)c1OC", "values": [{"measurement": "T/C", "setting": "dose: 100.0 mg/kg/injection, schedule: Q01DX011 (ip), vehicle: water", "result": "58 % of control"}, {"measurement": "T/C", "setting": "dose: 200.0 mg/kg/injection, schedule: Q01DX011 (ip), vehicle: water", "result": "83 % of control"}]}
{"smiles": "CS(C)=O", "values": [{"measurement": "T/C", "setting": "dose: 1000.0 mg/kg/injection, schedule: Q01DX011 (ip), vehicle: other", "result": "71 % of control"}, {"measurement": "T/C", "setting": "dose: 1000.0 mg/kg/injection, schedule: Q#A X022 (ip), vehicle: other", "result": "25 % of control"}, {"measurement": "T/C", "setting": "dose: 1500.0 mg/kg/injection, schedule: Q01DX011 (ip), vehicle: other", "result": "115 % of control"}, {"measurement": "T/C", "setting": "dose: 1500.0 mg/kg/injection, schedule: Q#A X022 (ip), vehicle: other", "result": "67 % of control"}]}
{"smiles": "CC(Sc1ncnc2nc[nH]c12)c1ccccc1", "note": "(stereo not given)", "values": [{"measurement": "T/C", "setting": "dose: 0.37 mg/kg/injection, schedule: Q01DX011 (ip), vehicle: methylcellulose (MC)", "result": "60 % of control"}, {"measurement": "T/C", "setting": "dose: 0.65 mg/kg/injection, schedule: Q01DX011 (ip), vehicle: methylcellulose (MC)", "result": "83 % of control"}, {"measurement": "T/C", "setting": "dose: 1.11 mg/kg/injection, schedule: Q01DX011 (ip), vehicle: methylcellulose (MC)", "result": "35 % of control"}, {"measurement": "T/C", "setting": "dose: 1.3 mg/kg/injection, schedule: Q01DX011 (ip), vehicle: methylcellulose (MC)", "result": "97 % of control"}, {"measurement": "T/C", "setting": "dose: 2.5 mg/kg/injection, schedule: Q01DX011 (ip), vehicle: methylcellulose (MC)", "result": "37 % of control"}, {"measurement": "T/C", "setting": "dose: 3.33 mg/kg/injection, schedule: Q01DX011 (ip), vehicle: methylcellulose (MC)", "result": "62 % of control"}, {"measurement": "T/C", "setting": "dose: 5.0 mg/kg/injection, schedule: Q01DX011 (ip), vehicle: methylcellulose (MC)", "result": "12 % of control"}, {"measurement": "T/C", "setting": "dose: 10.0 mg/kg/injection, schedule: Q01DX011 (ip), vehicle: methylcellulose (MC)", "result": "18 % of control"}]}
{"smiles": "Cn1c(N)c(C(=O)CCl)c(=O)n(C)c1=O", "values": [{"measurement": "T/C", "setting": "[1]", "result": "66 % of control"}]}
{"smiles": "CC1CC2(C)C(=CC1=O)CCC1C3CCC(C)(O)C3(C)CC(O)C12F", "note": "(stereo not given)", "values": [{"measurement": "T/C", "setting": "dose: 200.0 mg/kg/injection, schedule: Q01DX011 (sc), vehicle: steriod suspending solution", "result": "106 % of control"}, {"measurement": "T/C", "setting": "dose: 400.0 mg/kg/injection, schedule: Q01DX011 (sc), vehicle: steriod suspending solution", "result": "92 % of control"}]}
{"smiles": "NNC(=O)CCC(N)C(=O)O", "note": "(stereo not given)", "values": [{"measurement": "T/C", "setting": "dose: 10.21 mg/kg/injection, schedule: Q01DX011 (ip), vehicle: carboxymethylcellulose (CMC)", "result": "121 % of control"}, {"measurement": "T/C", "setting": "dose: 13.0 mg/kg/injection, schedule: Q01DX011 (ip), vehicle: carboxymethylcellulose (CMC)", "result": "91 % of control"}, {"measurement": "T/C", "setting": "dose: 20.42 mg/kg/injection, schedule: Q01DX011 (ip), vehicle: carboxymethylcellulose (CMC)", "result": "96 % of control"}, {"measurement": "T/C", "setting": "dose: 26.0 mg/kg/injection, schedule: Q01DX011 (ip), vehicle: carboxymethylcellulose (CMC)", "result": "60 % of control"}, {"measurement": "T/C", "setting": "dose: 40.85 mg/kg/injection, schedule: Q01DX011 (ip), vehicle: carboxymethylcellulose (CMC)", "result": "151 % of control"}, {"measurement": "T/C", "setting": "dose: 43.05 mg/kg/injection, schedule: Q01DX011 (ip), vehicle: carboxymethylcellulose (CMC)", "result": "97 % of control"}, {"measurement": "T/C", "setting": "dose: 52.0 mg/kg/injection, schedule: Q01DX011 (ip), vehicle: carboxymethylcellulose (CMC)", "result": "70 % of control"}, {"measurement": "T/C", "setting": "dose: 81.7 mg/kg/injection, schedule: Q01DX011 (ip), vehicle: carboxymethylcellulose (CMC)", "result": "67 % of control"}, {"measurement": "T/C", "setting": "dose: 86.1 mg/kg/injection, schedule: Q01DX011 (ip), vehicle: carboxymethylcellulose (CMC)", "result": "98 % of control"}, {"measurement": "T/C", "setting": "dose: 104.0 mg/kg/injection, schedule: Q01DX011 (ip), vehicle: carboxymethylcellulose (CMC)", "result": "56 % of control"}]}
{"smiles": "CS(=O)(=O)OCCC(=O)N1CN(C(=O)CCOS(C)(=O)=O)CN(C(=O)CCOS(C)(=O)=O)C1", "values": [{"measurement": "T/C", "setting": "dose: 28.0 mg/kg/injection, schedule: Q01DX011 (ip), vehicle: methylcellulose (MC)", "result": "115 % of control"}, {"measurement": "T/C", "setting": "dose: 57.0 mg/kg/injection, schedule: Q01DX011 (ip), vehicle: methylcellulose (MC)", "result": "110 % of control"}, {"measurement": "T/C", "setting": "[2]", "result": "81 % of control"}]}
{"smiles": "NC(CS)C(=O)O", "note": "(stereo not given) (tested in a mixture with another compound)", "values": [{"measurement": "T/C", "setting": "dose: 150.0 mg/kg/injection, schedule: Q01DX011 (ip), vehicle: methylcellulose (MC)", "result": "42 % of control"}, {"measurement": "T/C", "setting": "dose: 150.0 mg/kg/injection, schedule: Q01DX011 (ip), vehicle: saline", "result": "56 % of control and 61 % of control"}, {"measurement": "T/C", "setting": "[2]", "result": "31 % of control"}, {"measurement": "T/C", "setting": "dose: 225.0 mg/kg/injection, schedule: Q01DX011 (ip), vehicle: saline", "result": "18 % of control"}, {"measurement": "T/C", "setting": "dose: 275.0 mg/kg/injection, schedule: Q01DX011 (ip), vehicle: saline", "result": "55 % of control"}, {"measurement": "T/C", "setting": "dose: 350.0 mg/kg/injection, schedule: Q01DX011 (ip), vehicle: methylcellulose (MC)", "result": "18 % of control"}, {"measurement": "T/C", "setting": "dose: 350.0 mg/kg/injection, schedule: Q01DX011 (ip), vehicle: saline", "result": "35 % of control and 48 % of control"}, {"measurement": "T/C", "setting": "dose: 500.0 mg/kg/injection, schedule: Q01DX011 (ip), vehicle: methylcellulose (MC)", "result": "19 % of control"}]}
{"smiles": "O=c1[nH]cc(N(CCCl)CCCl)c(=O)[nH]1", "values": [{"measurement": "T/C", "setting": "dose: 0.17 mg/kg/injection, schedule: Q01DX011 (ip), vehicle: carboxymethylcellulose (CMC)", "result": "82 % of control"}, {"measurement": "T/C", "setting": "dose: 0.21 mg/kg/injection, schedule: Q01DX011 (ip), vehicle: carboxymethylcellulose (CMC)", "result": "93 % of control and 94 % of control"}, {"measurement": "T/C", "setting": "dose: 0.34 mg/kg/injection, schedule: Q01DX011 (ip), vehicle: carboxymethylcellulose (CMC)", "result": "86 % of control"}, {"measurement": "T/C", "setting": "dose: 0.42 mg/kg/injection, schedule: Q01DX011 (ip), vehicle: carboxymethylcellulose (CMC)", "result": "53 % of control and 54 % of control"}, {"measurement": "T/C", "setting": "dose: 0.67 mg/kg/injection, schedule: Q01DX011 (ip), vehicle: carboxymethylcellulose (CMC)", "result": "45 % of control"}, {"measurement": "T/C", "setting": "dose: 0.68 mg/kg/injection, schedule: Q01DX011 (ip), vehicle: carboxymethylcellulose (CMC)", "result": "77 % of control and 80 % of control"}, {"measurement": "T/C", "setting": "dose: 0.83 mg/kg/injection, schedule: Q01DX011 (ip), vehicle: carboxymethylcellulose (CMC)", "result": "58 % of control"}, {"measurement": "T/C", "setting": "dose: 1.11 mg/kg/injection, schedule: Q01DX011 (ip), vehicle: carboxymethylcellulose (CMC)", "result": "59 % of control"}, {"measurement": "T/C", "setting": "dose: 1.13 mg/kg/injection, schedule: Q01DX011 (ip), vehicle: carboxymethylcellulose (CMC)", "result": "40 % of control"}, {"measurement": "T/C", "setting": "dose: 1.35 mg/kg/injection, schedule: Q01DX011 (ip), vehicle: carboxymethylcellulose (CMC)", "result": "22 % of control"}, {"measurement": "T/C", "setting": "dose: 1.67 mg/kg/injection, schedule: Q01DX011 (ip), vehicle: carboxymethylcellulose (CMC)", "result": "18 % of control"}, {"measurement": "T/C", "setting": "dose: 1.69 mg/kg/injection, schedule: Q01DX011 (ip), vehicle: carboxymethylcellulose (CMC)", "result": "27 % of control and 28 % of control"}]}
{"smiles": "CSc1nc2c(=O)[nH]c(N)nc2n1C1OC(CO)C(O)C1O", "note": "(stereo not given)", "values": [{"measurement": "T/C", "setting": "[1]", "result": "88 % of control"}, {"measurement": "T/C", "setting": "dose: 60.0 mg/kg/injection, schedule: Q01DX011 (ip), vehicle: carboxymethylcellulose (CMC)", "result": "98 % of control"}, {"measurement": "T/C", "setting": "dose: 120.0 mg/kg/injection, schedule: Q01DX011 (ip), vehicle: carboxymethylcellulose (CMC)", "result": "91 % of control"}, {"measurement": "T/C", "setting": "dose: 240.0 mg/kg/injection, schedule: Q01DX011 (ip), vehicle: carboxymethylcellulose (CMC)", "result": "47 % of control"}]}
{"smiles": "Cn1cnc2c(Cl)nc(C(F)(F)F)nc21", "values": [{"measurement": "T/C", "setting": "[1]", "result": "80 % of control"}]}
